According to ChEMBL document CHEMBL1141004, “N-((8-hydroxy-5-substituted-quinolin-7-yl)(phenyl)methyl)-2-phenyloxy/amino-acetamide inhibitors of ADAMTS-5 (Aggrecanase-2)” (Bioorg Med Chem Lett, 2008):

What was measured:
[1] = target: Cytochrome P450 3A4 (Homo sapiens, UniProt P08684); assay: Inhibition of CYP3A4 at 30 uM by FRET assay; assay type: ADME
[2] = Metabolic stability in rat liver microsomes assessed as half life; assay type: ADME, Microsome
[3] = target: Collagenase 3 (Homo sapiens, UniProt P45452); assay: Inhibition of MMP13 by FRET assay
[4] = target: T1, A disintegrin and metalloproteinase with thrombospondin motifs 4 (Homo sapiens, UniProt O75173); assay: Inhibition of ADAMTS4 by FRET assay
T1 sequence (O75173 whole entry): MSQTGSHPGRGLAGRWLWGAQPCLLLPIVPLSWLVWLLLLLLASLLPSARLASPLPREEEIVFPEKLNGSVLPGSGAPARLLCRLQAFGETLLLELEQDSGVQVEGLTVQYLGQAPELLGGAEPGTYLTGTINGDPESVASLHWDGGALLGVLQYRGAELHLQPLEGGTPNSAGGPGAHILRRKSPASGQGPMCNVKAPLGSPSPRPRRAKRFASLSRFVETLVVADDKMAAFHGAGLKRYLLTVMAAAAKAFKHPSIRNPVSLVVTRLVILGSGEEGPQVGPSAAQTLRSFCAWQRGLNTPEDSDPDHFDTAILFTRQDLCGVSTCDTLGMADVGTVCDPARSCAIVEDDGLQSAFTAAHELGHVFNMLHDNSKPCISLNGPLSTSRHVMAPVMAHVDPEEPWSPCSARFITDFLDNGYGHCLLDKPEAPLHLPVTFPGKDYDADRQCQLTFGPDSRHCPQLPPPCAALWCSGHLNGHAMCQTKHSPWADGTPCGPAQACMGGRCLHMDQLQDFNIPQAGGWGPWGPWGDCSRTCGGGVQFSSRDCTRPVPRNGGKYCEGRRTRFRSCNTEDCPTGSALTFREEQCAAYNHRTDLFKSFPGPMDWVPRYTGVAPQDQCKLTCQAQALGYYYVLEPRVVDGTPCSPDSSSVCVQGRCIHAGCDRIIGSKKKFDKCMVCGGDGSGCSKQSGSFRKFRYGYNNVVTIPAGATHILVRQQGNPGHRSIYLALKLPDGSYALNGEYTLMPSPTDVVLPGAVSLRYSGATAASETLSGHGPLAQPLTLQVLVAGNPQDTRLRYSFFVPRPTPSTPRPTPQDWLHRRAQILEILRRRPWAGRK

[5] = target: Macrophage metalloelastase (Homo sapiens) (UniProt P39900); assay: Inhibition of MMP12 at […] by FRET assay
Sequence of Macrophage metalloelastase (Homo sapiens) (P39900 106-470 limits assumed): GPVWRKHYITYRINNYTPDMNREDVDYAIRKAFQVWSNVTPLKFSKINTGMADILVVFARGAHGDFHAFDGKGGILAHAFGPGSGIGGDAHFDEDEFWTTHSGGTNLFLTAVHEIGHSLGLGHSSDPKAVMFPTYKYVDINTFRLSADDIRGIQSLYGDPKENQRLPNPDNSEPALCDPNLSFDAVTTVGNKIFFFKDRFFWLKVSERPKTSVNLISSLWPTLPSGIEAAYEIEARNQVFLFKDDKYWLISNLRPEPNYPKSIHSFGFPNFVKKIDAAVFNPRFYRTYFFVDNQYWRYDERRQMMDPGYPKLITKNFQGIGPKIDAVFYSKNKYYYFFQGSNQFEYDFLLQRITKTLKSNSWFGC

Sequence of Cytochrome P450 3A4 (P08684 whole entry): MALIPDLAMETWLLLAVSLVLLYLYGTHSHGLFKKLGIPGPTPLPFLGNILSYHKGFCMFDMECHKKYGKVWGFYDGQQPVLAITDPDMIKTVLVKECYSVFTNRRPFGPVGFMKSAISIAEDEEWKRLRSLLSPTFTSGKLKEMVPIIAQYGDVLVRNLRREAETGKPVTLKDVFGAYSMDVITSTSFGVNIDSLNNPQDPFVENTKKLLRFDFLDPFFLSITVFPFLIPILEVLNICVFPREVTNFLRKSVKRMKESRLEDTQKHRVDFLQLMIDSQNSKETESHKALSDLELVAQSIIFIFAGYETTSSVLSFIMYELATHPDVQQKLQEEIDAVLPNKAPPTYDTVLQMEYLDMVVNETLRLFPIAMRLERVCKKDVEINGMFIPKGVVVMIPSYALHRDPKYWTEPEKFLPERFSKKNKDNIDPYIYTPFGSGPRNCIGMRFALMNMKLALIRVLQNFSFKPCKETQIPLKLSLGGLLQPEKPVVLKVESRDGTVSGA

inhibition (INH) [1] [%]	Structure (SMILES)	also measured
29	Cc1ccc(C(NC(=O)CNc2ccc(C#N)cc2)c2cc(Cl)c3cccnc3c2O)cc1 (configuration not stated)	
30	Cc1ccc(C(NC(=O)CN(C)Cc2ccccc2)c2cc(Cl)c3cccnc3c2O)cc1 (configuration not stated)	half-life [2]: 16 min
56	O=C(COc1ccccc1)NC(c1ccccc1)c1ccc2cccnc2c1O (configuration not stated)	
5	O=C(COc1ccccc1)NC(c1ccccc1)c1cc(Cl)c2cccnc2c1O (configuration not stated)	
26	N#Cc1ccccc1C(NC(=O)COc1ccccc1)c1cc(Cl)c2cccnc2c1O (configuration not stated)	
32	CN(CC(=O)NC(c1cccc(F)c1)c1cc(Cl)c2cccnc2c1O)Cc1ccccc1 (configuration not stated)	half-life [2]: 16 min
56	COc1ccc(C(NC(=O)COc2cccc(N(C)C)c2)c2cc(Cl)c3cccnc3c2O)cc1 (configuration not stated)	
45	CC(=O)c1ccc(NCC(=O)NC(c2ccc(C)cc2)c2cc(Cl)c3cccnc3c2O)cc1 (configuration not stated)	half-life [2]: 4 min
16	CN(CC(=O)NC(c1ccccc1Cl)c1cc(Cl)c2cccnc2c1O)Cc1ccccc1 (configuration not stated)	half-life [2]: 5 min
53	CN(C)c1cccc(OCC(=O)NC(c2cccc(F)c2)c2cc(Cl)c3cccnc3c2O)c1 (configuration not stated)	
21	COc1ccc(C(NC(=O)COc2ccc(Oc3ccccc3)cc2)c2cc(Cl)c3cccnc3c2O)cc1 (configuration not stated)	
69	Cc1ccc(OCC(=O)NC(c2ccccc2)c2cc(Cl)c3cccnc3c2O)cc1 (configuration not stated)	
36	O=C(CNCc1ccccc1)NC(c1ccccc1Cl)c1cc(Cl)c2cccnc2c1O (configuration not stated)	
37	O=C(COc1ccccc1)NC(c1ccccc1C(F)(F)F)c1cc(Cl)c2cccnc2c1O (configuration not stated)	
33	Cc1cc(C(NC(=O)COc2ccccc2)c2cccc([N+](=O)[O-])c2)c(O)c2ncccc12 (configuration not stated)	half-life [2]: 6 min
20	CN(CC(=O)NC(c1cccc([N+](=O)[O-])c1)c1cc(Cl)c2cccnc2c1O)Cc1ccccc1 (configuration not stated)	
41	CN(CC(=O)NC(c1cccc(F)c1)c1cc(Cl)c2cccnc2c1O)c1ccccc1 (configuration not stated)	
8	CC(=O)Nc1ccc(NCC(=O)NC(c2cccc([N+](=O)[O-])c2)c2cc(Cl)c3cccnc3c2O)cc1 (configuration not stated)	half-life [2]: 30 min
37	Cc1ccc(C(NC(=O)CNc2cccc(N(C)C)c2)c2cc(Cl)c3cccnc3c2O)cc1 (configuration not stated)	
55	Cc1cc(C(NC(=O)COc2ccccc2)c2ccccc2Cl)c(O)c2ncccc12 (configuration not stated)	

inhibition (INH) [1] [%]	Structure (SMILES)	also measured
32	O=C(CNCc1ccccc1)NC(c1cccc(F)c1)c1cc(Cl)c2cccnc2c1O (configuration not stated)	
13	O=C(COc1ccccc1)NC(c1ccc([N+](=O)[O-])cc1)c1cc(Cl)c2cccnc2c1O (configuration not stated)	
54	COc1ccc(C(NC(=O)COc2ccccc2)c2cc(Cl)c3cccnc3c2O)cc1 (configuration not stated)	
29	Cc1ccc(C(NC(=O)CNCc2ccccc2)c2cc(Cl)c3cccnc3c2O)cc1 (configuration not stated)	half-life [2]: 10 min
17	Cc1cc(NCC(=O)NC(c2cccc([N+](=O)[O-])c2)c2cc(Cl)c3cccnc3c2O)ccc1Cl (configuration not stated)	
22	O=C(COc1ccccc1)NC(c1ccccc1)c1cc(F)c2cccnc2c1O (configuration not stated)	
74	COc1ccc(OCC(=O)NC(c2ccc(OC)cc2)c2cc(Cl)c3cccnc3c2O)cc1 (configuration not stated)	IC50 [3]: > 200 µM; IC50 [4]: > 50 µM; inhibition [5]: 37%
10	Cc1ccccc1C(NC(=O)COc1ccccc1)c1cc(Cl)c2cccnc2c1O (configuration not stated)	
78	COc1ccc(C(NC(=O)COc2ccc(C)cc2)c2cc(Cl)c3cccnc3c2O)cc1 (configuration not stated)	
35	O=C(COc1cccnc1)NC(c1cccc(F)c1)c1cc(Cl)c2cccnc2c1O (configuration not stated)	
38	O=C(COc1ccccc1)NC(c1cccc([N+](=O)[O-])c1)c1cc(Br)c2cccnc2c1O (configuration not stated)	
20	Cc1ccc(C(NC(=O)CN(C)c2ccccc2)c2cc(Cl)c3cccnc3c2O)cc1 (configuration not stated)	half-life [2]: 6 min
2	O=C(COc1ccc(Cl)cc1)NC(c1ccccc1)c1cc(Cl)c2cccnc2c1O (configuration not stated)	
4	CC(=O)Nc1ccc(OCC(=O)NC(c2ccccc2Cl)c2cc(Cl)c3cccnc3c2O)cc1 (configuration not stated)	
10	CC(C)(C)c1ccc(OCC(=O)NC(c2ccccc2Cl)c2cc(Cl)c3cccnc3c2O)cc1 (configuration not stated)	
34	CN(CC(=O)NC(c1ccccc1Cl)c1cc(Cl)c2cccnc2c1O)c1ccccc1 (configuration not stated)	
20	O=C(COc1cc(Cl)cc(Cl)c1)NC(c1cccc([N+](=O)[O-])c1)c1cc(Cl)c2cccnc2c1O (configuration not stated)	
31	CC(=O)Nc1ccc(OCC(=O)NC(c2cccc(F)c2)c2cc(Cl)c3cccnc3c2O)cc1 (configuration not stated)	
57	O=C(COc1ccccc1)NC(c1cccc(F)c1)c1cc(Cl)c2cccnc2c1O (configuration not stated)	
24	O=C(COc1ccccc1)NC(c1ccccc1F)c1cc(Cl)c2cccnc2c1O (configuration not stated)	

inhibition (INH) [1] [%]	Structure (SMILES)	also measured
35	O=C(COc1ccccc1)NC(c1ccccc1Cl)c1cc([N+](=O)[O-])c2cccnc2c1O (configuration not stated)	
38	O=C(COc1ccccc1)NC(c1ccc(Cl)cc1)c1cc(Cl)c2cccnc2c1O (configuration not stated)	
45	Cc1ccc(C(NC(=O)COc2ccccc2)c2cc(Cl)c3cccnc3c2O)cc1 (configuration not stated)	
46	O=C(COCc1ccccc1)NC(c1cccc(F)c1)c1cc(Cl)c2cccnc2c1O (configuration not stated)	half-life [2]: 24 min
43	O=C(COc1ccccc1)NC(c1ccccc1Cl)c1cc(Cl)c2cccnc2c1O (configuration not stated)	IC50 [3]: > 67 µM; IC50 [4]: 2.4 µM; inhibition [5]: 50%
45	Cc1ccc(C(NC(=O)COCc2ccccc2)c2cc(Cl)c3cccnc3c2O)cc1 (configuration not stated)	
33	COc1ccc(C(NC(=O)COc2cccnc2)c2cc(Cl)c3cccnc3c2O)cc1 (configuration not stated)	half-life [2]: 16 min
33	O=C(COc1ccccc1)NC(c1ccccc1Cl)c1cc(Br)c2cccnc2c1O (configuration not stated)	
30	Cc1cc(OCC(=O)NC(c2ccccc2Cl)c2cc(Cl)c3cccnc3c2O)ccc1Cl (configuration not stated)	
67	O=C(COc1cccnc1)NC(c1cccc([N+](=O)[O-])c1)c1cc(Cl)c2cccnc2c1O (configuration not stated)	
38	O=C(COc1ccccc1)NC(c1ccccc1[N+](=O)[O-])c1cc(Cl)c2cccnc2c1O (configuration not stated)	half-life [2]: 5 min
26	O=C(COc1ccccc1)NC(c1cccc([N+](=O)[O-])c1)c1cc(Cl)c2cccnc2c1O (configuration not stated)	IC50 [3]: > 200 µM; half-life [2]: 6 min; IC50 [4]: 1.9 µM; inhibition [5]: 45%
11	Cc1cc(NCC(=O)NC(c2ccccc2Cl)c2cc(Cl)c3cccnc3c2O)ccc1Cl (configuration not stated)	half-life [2]: 8 min
20	O=C(COc1ccccc1)NC(c1ccccc1)c1cc([N+](=O)[O-])c2cccnc2c1O (configuration not stated)	
12	Cc1ccc(C(NC(=O)CNc2ccc(Cl)c(C)c2)c2cc(Cl)c3cccnc3c2O)cc1 (configuration not stated)	
27	CC(=O)c1ccc(NCC(=O)NC(c2cccc([N+](=O)[O-])c2)c2cc(Cl)c3cccnc3c2O)cc1 (configuration not stated)	
38	CN(C)c1cccc(OCC(=O)NC(c2ccccc2Cl)c2cc(Cl)c3cccnc3c2O)c1 (configuration not stated)	
37	COc1ccc(C(NC(=O)COc2ccc(NC(C)=O)cc2)c2cc(Cl)c3cccnc3c2O)cc1 (configuration not stated)	
14	Cc1cc(NCC(=O)NC(c2cccc(F)c2)c2cc(Cl)c3cccnc3c2O)ccc1Cl (configuration not stated)	
18	CC(=O)c1ccc(OCC(=O)NC(c2cccc([N+](=O)[O-])c2)c2cc(Cl)c3cccnc3c2O)cc1 (configuration not stated)	
